Assay results taken from patent US9249129B2, “Morpholino substituted urea derivatives as mTOR inhibitors” (CELLZOME LIMITED, priority 2010, dated 2016).

Experiments:
Assay in all cases: kinobeads assay with mass spectrometry detection of kinases (kinase selectivity profile)
Assay type in all cases: binding
kinases (kinome) [1] = biological target: T1, kinases (kinome) (Homo sapiens, UniProt Q08345); settings: DDR1 (TK), IPI00657861
T1 construct: determined in kinobeads assays with mass spectrometry detection of kinases as described previously; endogenous in cells; host or cells: cell lysate
T1 sequence (Q08345 19-913): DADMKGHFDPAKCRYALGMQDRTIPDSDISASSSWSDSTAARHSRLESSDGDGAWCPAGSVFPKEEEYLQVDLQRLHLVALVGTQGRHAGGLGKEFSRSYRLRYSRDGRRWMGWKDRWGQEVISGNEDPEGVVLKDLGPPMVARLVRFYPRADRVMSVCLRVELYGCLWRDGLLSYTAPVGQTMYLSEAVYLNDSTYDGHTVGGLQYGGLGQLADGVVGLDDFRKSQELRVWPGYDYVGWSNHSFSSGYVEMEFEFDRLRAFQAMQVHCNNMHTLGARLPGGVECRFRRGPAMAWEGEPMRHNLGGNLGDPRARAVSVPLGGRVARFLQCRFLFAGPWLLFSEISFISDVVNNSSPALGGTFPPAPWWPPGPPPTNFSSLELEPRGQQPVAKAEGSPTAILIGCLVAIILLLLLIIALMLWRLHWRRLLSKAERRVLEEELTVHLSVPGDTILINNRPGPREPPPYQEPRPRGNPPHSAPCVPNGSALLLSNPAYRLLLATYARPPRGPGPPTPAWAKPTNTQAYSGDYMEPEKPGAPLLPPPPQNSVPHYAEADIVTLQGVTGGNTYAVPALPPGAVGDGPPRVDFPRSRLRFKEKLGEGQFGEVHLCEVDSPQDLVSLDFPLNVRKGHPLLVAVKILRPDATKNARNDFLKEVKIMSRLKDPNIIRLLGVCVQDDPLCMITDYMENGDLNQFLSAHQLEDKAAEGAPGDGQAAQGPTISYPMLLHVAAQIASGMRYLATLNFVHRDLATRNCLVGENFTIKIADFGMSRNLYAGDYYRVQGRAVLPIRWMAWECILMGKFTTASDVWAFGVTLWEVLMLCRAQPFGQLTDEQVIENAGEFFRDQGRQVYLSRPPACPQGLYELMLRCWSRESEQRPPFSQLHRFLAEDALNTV
Excerpt: (§1) The protein kinase complement of the human genome (the kinome) was described previously (Manning et al., 2002. Science 298(5600):1912-1934). Sequence accession numbers are defined by the International Protein Index (IPI) (Kersey et al., 2004. Proteomics 4(7):1985-1988).

kinases (kinome) [2] = biological target: T2, kinases (kinome) (Homo sapiens, UniProt P12931); settings: SRC (TK), IPI00328867
T2 construct: determined in kinobeads assays with mass spectrometry detection of kinases as described previously; endogenous in cells; host or cells: cell lysate
T2 sequence (P12931 whole entry): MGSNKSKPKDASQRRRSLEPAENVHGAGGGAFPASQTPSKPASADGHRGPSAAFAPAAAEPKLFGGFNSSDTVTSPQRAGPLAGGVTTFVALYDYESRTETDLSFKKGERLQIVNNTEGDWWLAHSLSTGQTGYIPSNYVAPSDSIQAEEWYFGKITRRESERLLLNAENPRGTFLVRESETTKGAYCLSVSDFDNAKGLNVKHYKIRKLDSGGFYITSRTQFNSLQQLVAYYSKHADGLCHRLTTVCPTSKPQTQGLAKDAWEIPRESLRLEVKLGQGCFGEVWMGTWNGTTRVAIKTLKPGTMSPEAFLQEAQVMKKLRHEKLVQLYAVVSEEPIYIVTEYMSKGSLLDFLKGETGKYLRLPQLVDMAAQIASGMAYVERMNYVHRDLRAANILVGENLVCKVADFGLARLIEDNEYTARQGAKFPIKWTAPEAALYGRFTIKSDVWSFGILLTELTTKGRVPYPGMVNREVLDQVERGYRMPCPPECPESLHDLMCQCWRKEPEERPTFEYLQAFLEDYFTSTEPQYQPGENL
Excerpt: as §1

kinases (kinome) [3] = biological target: T3, kinases (kinome) (Homo sapiens, UniProt Q14680); settings: MELK (CAMK), IPI00006471
T3 construct: determined in kinobeads assays with mass spectrometry detection of kinases as described previously; endogenous in cells; host or cells: cell lysate
T3 sequence (Q14680 whole entry): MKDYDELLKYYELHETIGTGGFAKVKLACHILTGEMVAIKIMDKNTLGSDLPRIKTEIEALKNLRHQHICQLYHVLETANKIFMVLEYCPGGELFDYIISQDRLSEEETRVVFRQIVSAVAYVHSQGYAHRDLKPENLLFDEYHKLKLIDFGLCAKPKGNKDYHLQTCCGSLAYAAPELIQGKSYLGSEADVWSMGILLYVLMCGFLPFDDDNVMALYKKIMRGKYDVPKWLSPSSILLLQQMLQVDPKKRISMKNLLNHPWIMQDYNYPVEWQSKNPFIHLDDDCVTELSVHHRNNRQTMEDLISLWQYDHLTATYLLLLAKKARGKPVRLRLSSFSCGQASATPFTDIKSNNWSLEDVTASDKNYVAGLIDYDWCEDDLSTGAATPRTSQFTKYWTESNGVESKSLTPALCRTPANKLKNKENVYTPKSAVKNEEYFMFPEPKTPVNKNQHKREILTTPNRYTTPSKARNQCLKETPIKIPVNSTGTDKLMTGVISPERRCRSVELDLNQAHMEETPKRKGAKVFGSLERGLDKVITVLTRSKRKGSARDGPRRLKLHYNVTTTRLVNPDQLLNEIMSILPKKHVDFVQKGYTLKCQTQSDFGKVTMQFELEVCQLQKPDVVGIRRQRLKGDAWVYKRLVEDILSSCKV
Excerpt: as §1

kinases (kinome) [4] = biological target: T4, kinases (kinome) (Homo sapiens, UniProt Q96S53); settings: TESK2 (TKL), IPI00102677
T4 construct: determined in kinobeads assays with mass spectrometry detection of kinases as described previously; endogenous in cells; host or cells: cell lysate
T4 sequence (Q96S53 whole entry): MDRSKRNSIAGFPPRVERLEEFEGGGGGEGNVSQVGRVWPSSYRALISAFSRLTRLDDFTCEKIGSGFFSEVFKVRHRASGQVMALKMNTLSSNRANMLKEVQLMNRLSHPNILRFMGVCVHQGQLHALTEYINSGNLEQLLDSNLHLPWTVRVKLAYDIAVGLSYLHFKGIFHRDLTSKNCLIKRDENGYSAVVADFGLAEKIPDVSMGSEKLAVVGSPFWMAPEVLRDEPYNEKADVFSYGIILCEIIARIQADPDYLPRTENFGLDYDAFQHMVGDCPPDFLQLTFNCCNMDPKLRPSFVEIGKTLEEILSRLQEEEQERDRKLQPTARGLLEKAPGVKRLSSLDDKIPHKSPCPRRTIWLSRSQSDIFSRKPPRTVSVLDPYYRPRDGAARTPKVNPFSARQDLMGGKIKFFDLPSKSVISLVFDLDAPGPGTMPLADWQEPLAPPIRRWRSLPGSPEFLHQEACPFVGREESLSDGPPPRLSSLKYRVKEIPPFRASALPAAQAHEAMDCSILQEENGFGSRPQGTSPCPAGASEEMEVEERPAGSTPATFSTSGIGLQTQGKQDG
Excerpt: as §1

kinases (kinome) [5] = biological target: T5, kinases (kinome) (Homo sapiens, UniProt P42345); settings: mTOR (Atypical), IPI00031410; 0.1 μM ranges
T5 construct: determined in kinobeads assays with mass spectrometry detection of kinases as described previously; endogenous in cells; host or cells: cell lysate
Excerpt: as §1

kinases (kinome) [6] = biological target: T6, kinases (kinome) (Homo sapiens, UniProt O15530); settings: PDK1 (AGC), IPI00002538
T6 construct: determined in kinobeads assays with mass spectrometry detection of kinases as described previously; endogenous in cells; host or cells: cell lysate
T6 sequence (O15530 1-556): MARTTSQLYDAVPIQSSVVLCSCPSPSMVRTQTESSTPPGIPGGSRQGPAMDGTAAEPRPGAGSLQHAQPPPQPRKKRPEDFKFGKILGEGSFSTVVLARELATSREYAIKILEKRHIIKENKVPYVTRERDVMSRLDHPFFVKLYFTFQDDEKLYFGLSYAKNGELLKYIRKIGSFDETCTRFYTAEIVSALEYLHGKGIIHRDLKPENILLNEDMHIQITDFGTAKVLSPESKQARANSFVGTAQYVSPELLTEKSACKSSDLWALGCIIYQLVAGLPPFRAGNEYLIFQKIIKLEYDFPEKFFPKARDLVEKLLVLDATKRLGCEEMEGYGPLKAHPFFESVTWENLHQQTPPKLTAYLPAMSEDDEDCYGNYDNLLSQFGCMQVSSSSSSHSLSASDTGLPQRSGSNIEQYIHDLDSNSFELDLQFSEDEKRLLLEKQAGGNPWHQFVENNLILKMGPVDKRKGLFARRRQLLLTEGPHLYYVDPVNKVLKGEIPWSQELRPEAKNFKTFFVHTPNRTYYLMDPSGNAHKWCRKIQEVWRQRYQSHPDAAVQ
Excerpt: as §1

kinases (kinome) [7] = biological target: T7, kinases (kinome) (Homo sapiens, UniProt Q13555); settings: CaMK2g (CAMK), IPI00908444
T7 construct: determined in kinobeads assays with mass spectrometry detection of kinases as described previously; endogenous in cells; host or cells: cell lysate
Excerpt: as §1

kinases (kinome) [8] = biological target: T8, kinases (kinome) (Homo sapiens, UniProt Q8TD19); settings: NEK9 (Other), IPI00301609
T8 construct: determined in kinobeads assays with mass spectrometry detection of kinases as described previously; endogenous in cells; host or cells: cell lysate
T8 sequence (Q8TD19 1-979): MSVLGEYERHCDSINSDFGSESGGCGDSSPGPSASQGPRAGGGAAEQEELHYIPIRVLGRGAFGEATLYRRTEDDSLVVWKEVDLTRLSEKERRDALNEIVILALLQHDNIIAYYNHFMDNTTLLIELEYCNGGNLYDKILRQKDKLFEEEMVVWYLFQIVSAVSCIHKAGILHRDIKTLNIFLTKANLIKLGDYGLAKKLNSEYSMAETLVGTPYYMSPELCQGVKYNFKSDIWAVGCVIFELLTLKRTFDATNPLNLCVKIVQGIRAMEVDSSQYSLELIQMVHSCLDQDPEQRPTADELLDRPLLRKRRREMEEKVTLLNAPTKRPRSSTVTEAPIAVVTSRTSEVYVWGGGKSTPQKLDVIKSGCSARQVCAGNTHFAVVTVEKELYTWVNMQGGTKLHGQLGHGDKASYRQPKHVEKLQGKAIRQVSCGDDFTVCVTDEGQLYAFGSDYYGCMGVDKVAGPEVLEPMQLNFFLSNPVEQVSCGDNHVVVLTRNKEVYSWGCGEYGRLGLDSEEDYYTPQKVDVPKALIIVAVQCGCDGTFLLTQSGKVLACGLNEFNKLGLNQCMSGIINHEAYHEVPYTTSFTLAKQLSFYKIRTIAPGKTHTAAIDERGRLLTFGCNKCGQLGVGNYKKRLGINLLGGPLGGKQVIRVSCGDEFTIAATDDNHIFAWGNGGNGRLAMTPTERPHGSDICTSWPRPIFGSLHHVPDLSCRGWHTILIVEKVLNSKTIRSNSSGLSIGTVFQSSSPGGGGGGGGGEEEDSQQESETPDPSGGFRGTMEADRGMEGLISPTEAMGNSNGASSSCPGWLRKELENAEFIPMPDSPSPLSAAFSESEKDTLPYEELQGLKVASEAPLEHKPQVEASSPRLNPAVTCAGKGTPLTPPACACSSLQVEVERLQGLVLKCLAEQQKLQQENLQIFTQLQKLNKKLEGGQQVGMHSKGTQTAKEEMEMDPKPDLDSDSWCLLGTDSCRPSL
Excerpt: as §1

kinases (kinome) [9] = biological target: T9, kinases (kinome) (Homo sapiens, UniProt P23458); settings: JAK1 (TK), IPI00784013
T9 construct: determined in kinobeads assays with mass spectrometry detection of kinases as described previously; endogenous in cells; host or cells: cell lysate
T9 sequence (P23458 whole entry): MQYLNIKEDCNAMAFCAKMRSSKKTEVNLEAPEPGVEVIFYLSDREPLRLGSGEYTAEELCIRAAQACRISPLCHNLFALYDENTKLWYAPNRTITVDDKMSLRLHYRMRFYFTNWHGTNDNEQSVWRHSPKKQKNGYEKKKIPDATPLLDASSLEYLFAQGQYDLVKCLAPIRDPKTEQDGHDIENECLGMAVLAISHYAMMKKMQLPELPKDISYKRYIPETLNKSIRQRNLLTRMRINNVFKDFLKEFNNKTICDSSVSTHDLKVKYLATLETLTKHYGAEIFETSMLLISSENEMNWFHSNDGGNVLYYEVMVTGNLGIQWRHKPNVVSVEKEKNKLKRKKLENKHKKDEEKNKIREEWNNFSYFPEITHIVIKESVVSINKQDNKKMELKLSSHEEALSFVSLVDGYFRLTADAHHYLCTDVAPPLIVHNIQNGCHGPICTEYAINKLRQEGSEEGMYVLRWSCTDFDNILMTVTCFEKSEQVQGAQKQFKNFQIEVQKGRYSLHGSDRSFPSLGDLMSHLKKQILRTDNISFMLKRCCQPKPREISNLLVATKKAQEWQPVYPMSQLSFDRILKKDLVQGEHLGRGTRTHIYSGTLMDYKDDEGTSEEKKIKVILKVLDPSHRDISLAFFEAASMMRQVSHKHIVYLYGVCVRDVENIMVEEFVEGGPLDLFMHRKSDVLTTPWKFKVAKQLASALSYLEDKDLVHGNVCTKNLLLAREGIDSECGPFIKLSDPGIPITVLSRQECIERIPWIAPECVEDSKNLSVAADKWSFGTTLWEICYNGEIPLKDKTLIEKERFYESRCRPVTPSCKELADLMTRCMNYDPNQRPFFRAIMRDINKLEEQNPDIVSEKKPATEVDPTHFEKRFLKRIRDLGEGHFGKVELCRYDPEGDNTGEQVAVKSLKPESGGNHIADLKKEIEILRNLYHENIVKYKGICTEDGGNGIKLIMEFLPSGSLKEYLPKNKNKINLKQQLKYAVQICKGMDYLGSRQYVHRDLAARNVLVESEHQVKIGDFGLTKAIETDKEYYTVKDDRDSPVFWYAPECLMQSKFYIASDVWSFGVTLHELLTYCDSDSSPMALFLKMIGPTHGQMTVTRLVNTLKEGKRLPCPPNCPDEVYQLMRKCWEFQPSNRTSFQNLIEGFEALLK
Excerpt: as §1

kinases (kinome) [10] = biological target: T10, kinases (kinome) (Homo sapiens, UniProt Q96GD4); settings: AurB (Other), IPI00796914
T10 construct: determined in kinobeads assays with mass spectrometry detection of kinases as described previously; endogenous in cells; host or cells: cell lysate
Excerpt: as §1

kinases (kinome) [11] = biological target: T11, kinases (kinome) (Homo sapiens, UniProt Q9Y6R4); settings: MAP3K4 (STE), IPI00386260
T11 construct: determined in kinobeads assays with mass spectrometry detection of kinases as described previously; endogenous in cells; host or cells: cell lysate
Excerpt: as §1

kinases (kinome) [12] = biological target: T12, kinases (kinome) (Homo sapiens, UniProt P17252); settings: PKCa (AGC), IPI00385449
T12 construct: determined in kinobeads assays with mass spectrometry detection of kinases as described previously; endogenous in cells; host or cells: cell lysate
Excerpt: as §1

kinases (kinome) [13] = biological target: T13, kinases (kinome) (Homo sapiens, UniProt P29597); settings: TYK2 (TK), IPI00022353
T13 construct: determined in kinobeads assays with mass spectrometry detection of kinases as described previously; endogenous in cells; host or cells: cell lysate
T13 sequence (P29597 whole entry): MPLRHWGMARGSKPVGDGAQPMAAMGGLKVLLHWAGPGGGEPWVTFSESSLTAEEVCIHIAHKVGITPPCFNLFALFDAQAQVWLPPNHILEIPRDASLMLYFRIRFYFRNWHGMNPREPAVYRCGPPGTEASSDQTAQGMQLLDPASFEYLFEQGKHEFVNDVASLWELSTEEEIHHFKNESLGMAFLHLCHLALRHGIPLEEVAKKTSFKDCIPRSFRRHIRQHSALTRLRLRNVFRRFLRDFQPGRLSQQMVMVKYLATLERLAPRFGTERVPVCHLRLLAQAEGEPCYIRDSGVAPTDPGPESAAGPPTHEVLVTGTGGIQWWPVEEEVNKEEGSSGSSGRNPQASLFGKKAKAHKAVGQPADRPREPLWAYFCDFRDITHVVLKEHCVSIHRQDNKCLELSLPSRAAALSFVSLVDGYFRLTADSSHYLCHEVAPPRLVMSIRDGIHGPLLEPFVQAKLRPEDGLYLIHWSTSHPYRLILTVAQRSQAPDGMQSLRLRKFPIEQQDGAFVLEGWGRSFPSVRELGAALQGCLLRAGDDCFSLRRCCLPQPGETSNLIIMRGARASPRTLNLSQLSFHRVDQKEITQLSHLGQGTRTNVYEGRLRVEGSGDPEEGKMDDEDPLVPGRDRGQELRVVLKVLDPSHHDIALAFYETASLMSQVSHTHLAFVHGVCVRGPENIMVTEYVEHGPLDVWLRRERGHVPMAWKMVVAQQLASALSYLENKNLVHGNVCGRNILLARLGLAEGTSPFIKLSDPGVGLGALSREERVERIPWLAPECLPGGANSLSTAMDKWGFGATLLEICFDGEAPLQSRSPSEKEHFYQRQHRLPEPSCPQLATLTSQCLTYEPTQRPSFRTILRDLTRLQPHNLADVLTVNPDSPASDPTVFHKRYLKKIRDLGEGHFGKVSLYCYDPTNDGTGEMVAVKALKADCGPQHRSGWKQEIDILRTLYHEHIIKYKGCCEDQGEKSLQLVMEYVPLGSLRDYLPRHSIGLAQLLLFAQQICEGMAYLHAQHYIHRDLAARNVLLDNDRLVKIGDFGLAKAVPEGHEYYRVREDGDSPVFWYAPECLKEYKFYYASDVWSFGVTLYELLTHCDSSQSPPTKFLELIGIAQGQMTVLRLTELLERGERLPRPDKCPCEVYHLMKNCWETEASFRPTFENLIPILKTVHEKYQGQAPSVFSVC
Excerpt: as §1

kinases (kinome) [14] = biological target: T14, kinases (kinome) (Homo sapiens, UniProt Q14289); settings: PYK2 (TK), IPI00029702
T14 construct: determined in kinobeads assays with mass spectrometry detection of kinases as described previously; endogenous in cells; host or cells: cell lysate
Excerpt: as §1

SMILES	IC50 (kinases (kinome) [1]) [µM]	IC50 (kinases (kinome) [2]) [µM]	IC50 (kinases (kinome) [3]) [µM]	IC50 (kinases (kinome) [4]) [µM]	IC50 (kinases (kinome) [5]) [µM]	IC50 (kinases (kinome) [6]) [µM]	IC50 (kinases (kinome) [7]) [µM]	IC50 (kinases (kinome) [9]) [µM]	IC50 (kinases (kinome) [10]) [µM]	IC50 (kinases (kinome) [11]) [µM]	IC50 (kinases (kinome) [12]) [µM]	IC50 (kinases (kinome) [13]) [µM]	IC50 (kinases (kinome) [14]) [µM]	IC50 (kinases (kinome) [8]) [µM]
C[C@H]1COCCN1c1nc(-c2ccc(NC(=O)NC3CC3)cc2)cc(-c2ccccc2S(C)(=O)=O)n1 [Example 4, (S)-1-cyclopropyl-3-(4-(2-(3-methylmorpholino)-6-(2-(methylsulfonyl)phenyl)pyrimidin-4-yl)phenyl)urea]	> 10	> 10	> 10	> 10	0.3 to 0.4	> 10	> 10	> 10	> 10	> 10	> 10	> 10	> 10	> 10
C[C@H]1COCCN1c1nc(-c2ccc(NC(=O)NC3CC3)cc2)cc(-c2cc(F)ccc2S(C)(=O)=O)n1 [Example 40, (S)-1-cyclopropyl-3-(4-(6-(5-fluoro-2-(methylsulfonyl)phenyl)-2-(3-methylmorpholino)pyrimidin-4-yl)phenyl)urea]	> 10	> 10	> 10	> 10	0.1 to 0.2	> 10	> 10	> 10	> 10	> 10	> 10	> 10	> 10	> 10
C[C@H]1COCCN1c1nc(-c2ccc(NC(=O)N[C@H]3CCC[C@@H]3O)cc2)cc(-c2cc(F)ccc2S(C)(=O)=O)n1 [Example 76, 1-(4-(6-(5-fluoro-2-(methylsulfonyl)phenyl)-2-((S)-3-methylmorpholino)pyrimidin-4-yl)phenyl)-3-((1S,2S)-2-hydroxycyclopentyl)urea]	> 10	> 10	> 10	> 10	0.1 to 0.2	> 10	> 10	> 10	> 10	> 10	> 10	> 10	> 10	> 10

More lines, main results first:

IC50 (kinases (kinome) [1]) [µM]	IC50 (kinases (kinome) [2]) [µM]	IC50 (kinases (kinome) [3]) [µM]	IC50 (kinases (kinome) [4]) [µM]	IC50 (kinases (kinome) [5]) [µM]	IC50 (kinases (kinome) [6]) [µM]	IC50 (kinases (kinome) [7]) [µM]	IC50 (kinases (kinome) [9]) [µM]	IC50 (kinases (kinome) [10]) [µM]	IC50 (kinases (kinome) [11]) [µM]	IC50 (kinases (kinome) [12]) [µM]	IC50 (kinases (kinome) [13]) [µM]	IC50 (kinases (kinome) [14]) [µM]	SMILES	IC50 (kinases (kinome) [8]) [µM]
> 10	> 10	> 10	> 10	0.2 to 0.3	> 10	> 10	> 10	> 10	> 10	> 10	> 10	> 10	C[C@H]1COCCN1c1nc(-c2ccc(NC(=O)NC3CC3)cc2)cc(-c2cccnc2S(C)(=O)=O)n1 [Example 46, (S)-1-cyclopropyl-3-(4-(2-(3-methylmorpholino)-6-(2-(methylsulfonyl)pyridin-3-yl)pyrimidin-4-yl)phenyl)urea]	> 10
> 10	> 10	> 10	> 10	0.1 to 0.2	> 10	> 10	> 10	> 10	> 10	> 10	> 10	> 10	C[C@H]1COCCN1c1cc(-c2ccccn2)nc(-c2ccc(NC(=O)NCCO)cc2)n1 [Example 43, (S)-1-(2-hydroxyethyl)-3-(4-(4-(3-methylmorpholino)-6-(pyridin-2-yl)pyrimidin-2-yl)phenyl)urea]	> 10
> 10	> 10	> 10	> 10	0.1 to 0.2	> 10	> 10	> 10	> 10	> 10	> 10	> 10	> 10	C[C@H]1COCCN1c1cc(-c2ccccc2S(C)(=O)=O)nc(-c2ccc(NC(=O)NC3CC3)cc2)n1 [Example 6, (S)-1-cyclopropyl-3-(4-(4-(3-methylmorpholino)-6-(2-(methylsulfonyl)phenyl)pyrimidin-2-yl)phenyl)urea]	> 10
–	> 10	> 10	> 10	0.1 to 0.2	> 10	> 10	> 10	> 10	> 10	> 10	> 10	> 10	CCNC(=O)Nc1ccc(-c2cc(-c3ccccc3C#N)nc(N3CCOC[C@@H]3C)n2)cc1 [Example 8, (S)-1-(4-(6-(2-cyanophenyl)-2-(3-methylmorpholino)pyrimidin-4-yl)phenyl)-3-ethylurea]	> 10
